Here are results for nine compounds from patent publication US20260193274A1, “AKT1 MODULATORS” (Alterome Therapeutics, Inc., priority 2022, published 2026).

Molecules are shown by their SMILES. Some results are limits rather than exact numbers.

The IC50 is the concentration needed to halve the response being measured.

For this test, the target named is T1, AKT1-E17K (Homo sapiens, UniProt P31749, E17K).
T1 construct: host or cells: HEK-293 (ATCC CRL-1573)
T1 sequence (P31749 whole entry E17K): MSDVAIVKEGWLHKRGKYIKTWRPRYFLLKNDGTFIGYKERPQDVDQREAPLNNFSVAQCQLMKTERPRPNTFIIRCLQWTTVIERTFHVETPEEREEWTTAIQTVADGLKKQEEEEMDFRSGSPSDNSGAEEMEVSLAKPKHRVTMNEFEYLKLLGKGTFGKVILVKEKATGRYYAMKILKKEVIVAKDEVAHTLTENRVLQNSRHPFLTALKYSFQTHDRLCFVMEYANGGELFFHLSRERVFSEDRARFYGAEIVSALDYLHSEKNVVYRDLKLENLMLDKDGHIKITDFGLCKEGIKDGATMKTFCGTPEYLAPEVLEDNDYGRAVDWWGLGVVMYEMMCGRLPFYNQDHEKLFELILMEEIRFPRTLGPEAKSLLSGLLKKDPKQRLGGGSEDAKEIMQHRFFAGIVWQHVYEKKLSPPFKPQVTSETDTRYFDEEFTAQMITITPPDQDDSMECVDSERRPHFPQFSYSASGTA
Put plainly: NanoBRET Target Engagement (TE) Assay. In kind it is cell-based. As to conditions: full length AKT E17K NanoLuc fusion in transfected HEK-293 cells; 2 hr equilibration with tracer and compound. The text has this:
NanoBRET is a highly specific and validated cell-based technique for assessing target engagement (Vasta et al., 2018, Cell Chem Biol. 25(2):206-214). The NanoBRET™ Target Engagement (TE) Intracellular Kinase Assays are based on the NanoBRET™ System (Promega Corporation), an energy transfer technique designed to measure molecular proximity in living cells. The NanoBRET™ TE Assays measure the apparent affinity of test compounds by competitive displacement of the NanoBRET™ tracer compound, which is a cell permeable molecule engineered to be reversibly bound to a NanoLuc® luciferase-kinase fusion expressed in cells. For compound screening, when a test compound binds to the selected kinase, the BRET signal is attenuated. For kinase inhibitors in particular, intracellular target selectivity is fundamental to pharmacological mechanism and allows the proteins of interest to be in the correct cellular confirmation. Although non-cell-based techniques have been developed to measure kinase binding or enzymatic inhibition with accuracy and precision, such approaches can fail to accurately predict engagement of the full-length target protein in the more complex and biologically relevant cellular context (Knight and Shokat, 2005, Chem. Biol. 12, 621-637; Smyth and Collins, 2009, J. Chem. Biol. 2, 131-151). […] Briefly, HEK-293 cells (ATCC Cat #CRL-1573) were used for transfection purposes using FuGENE HD Transfection Reagent (Promega Cat #E2311). All cells were evaluated for viability prior to transfection and optimization of the transfection was done prior to experimentation. Greater than 95% viability was used for all experiments. Following transfection, cells were washed and resuspended in Opti-MEM. NanoBRET assays were performed in white, 384-well plates (Corning) at a density of 2×10^5 cells/well. All example compounds were prepared as concentrated stock solutions in DMSO (Sigma-Aldrich). Compounds are dissolved in DMSO to make 10 mM stock solution. Example compounds were transferred as 40 μL of 10 mM stock solution to a 384 pp-plate (LABCYTE, PP-0200) and diluted in 3-fold, 10-point dilution via transferring […] by Apricot liquid handler. A Labcyte ECHO 550 compound dispenser was used to facilitate compound transfer directly to cells. Cells were equilibrated for 2 hr with energy transfer probes and example compound prior to BRET measurements. The AKTE17K (Promega Cat #NV2421) as well as specific probe (NanoBRET tracer, Promega Cat #N264B) was prepared at a concentration of 20× in tracer dilution buffer (12.5 mM HEPES, 31.25% PEG-400, pH 7.5). For target engagement analysis, the energy transfer probes were added to the cells at concentrations optimized for the target in question (AKT E17K). Following compound incubation, NanoBRET NanoGlo Substrate (Promega Cat #N157D) and Extracellular Nanoluc Inhibitor (Promega Cat #N235C) was added according to the manufacturer's recommended protocol, and luminescence was measured on Envision Reader (Perkin Elmer) Multimode Luminometer equipped with 450 nmBPfilter (donor) and 600 nmLPfilter (acceptor), using 0.5 s integration time. Milli-BRET units (mBU) are calculated by multiplying the raw BRET values by 1000. Apparent tracer affinity values (EC50) were determined using the sigmoidal dose-response (variable slope). Competitive displacement data were then plotted and data were fit to determine the EC50 value for each example compound.
With `N#CN1CC2(CCN(Cc3ccc(-n4c(-c5cccnc5N)nc5ccc(-c6ccccc6)nc54)cc3)C2)C1` [Example 18, 6-(4-(2-(2-Aminopyridin-3-yl)-5-phenyl-3H-imidazo[4,5-b]pyridin-3-yl)benzyl)-2,6-diazaspiro[3.4]octane-2-carbonitrile], the IC50 was in the range of 60 to 600 nM.
The compound `N#CN1CCCC2(CCN(Cc3ccc(-n4c(-c5cccnc5N)nc5ccc(-c6ccccc6)nc54)cc3)C2)C1` (stereo not drawn) [Example 21, 2-(4-(2-(2-Aminopyridin-3-yl)-5-phenyl-3H-imidazo[4,5-b]pyridin-3-yl)benzyl)-2,7-diazaspiro[4.5]decane-7-carbonitrile] gave an IC50 of over 600 nM.
`N#CN1C2CCC1CN(Cc1ccc(-n3c(-c4cccnc4N)nc4ccc(-c5ccccc5)nc43)cc1)C2` [Example 28, 3-(4-(2-(2-Aminopyridin-3-yl)-5-phenyl-3H-imidazo[4,5-b]pyridin-3-yl)benzyl)-3,8-diazabicyclo[3.2.1]octane-8-carbonitrile] registered an IC50 of 60 to 600 nM.
Next, `N#CN1CCN(Cc2ccc(-n3c(-c4cccnc4N)nc4ccc(-c5ccccc5)nc43)cc2)CC1` [Example 2, 4-(4-(2-(2-Aminopyridin-3-yl)-5-phenyl-3H-imidazo[4,5-b]pyridin-3-yl)benzyl)piperazine-1-carbonitrile]: over 600 nM; `CN(C#N)C1CCN(Cc2ccc(-n3c(-c4cccnc4N)nc4ccc(-c5ccccc5)nc43)cc2)CC1` [Example 14, N-(1-(4-(2-(2-Aminopyridin-3-yl)-5-phenyl-3H-imidazo[4,5-b]pyridin-3-yl)benzyl)piperidin-4-yl)-N-methylcyanamide]: 15 to 60 nM; `N#CN1CCC2(CC1)CN(Cc1ccc(-n3c(-c4cccnc4N)nc4ccc(-c5ccccc5)nc43)cc1)C2` [Example 22, 2-(4-(2-(2-Aminopyridin-3-yl)-5-phenyl-3H-imidazo[4,5-b]pyridin-3-yl)benzyl)-2,7-diazaspiro[3.5]nonane-7-carbonitrile]: 60 to 600 nM.
On to `N#CN1CC2(C1)CN(Cc1ccc(-n3c(-c4cccnc4N)nc4ccc(-c5ccccc5)nc43)cc1)C2` [Example 5, 6-(4-(2-(2-Aminopyridin-3-yl)-5-phenyl-3H-imidazo[4,5-b]pyridin-3-yl)benzyl)-2,6-diazaspiro[3.3]heptane-2-carbonitrile], for which the IC50 lay within 15 to 60 nM.
Next, `N#CN1CCC2(CCN(Cc3ccc(-n4c(-c5cccnc5N)nc5ccc(-c6ccccc6)nc54)cc3)C2)C1` (stereo not drawn) [Example 19, 7-(4-(2-(2-Aminopyridin-3-yl)-5-phenyl-3H-imidazo[4,5-b]pyridin-3-yl)benzyl)-2,7-diazaspiro[4.4]nonane-2-carbonitrile]: 15 to 60 nM; `N#CN1CCC2(C1)CN(Cc1ccc(-n3c(-c4cccnc4N)nc4ccc(-c5ccccc5)nc43)cc1)C2` [Example 38, 2-(4-(2-(2-Aminopyridin-3-yl)-5-phenyl-3H-imidazo[4,5-b]pyridin-3-yl)benzyl)-2,6-diazaspiro[3.4]octane-6-carbonitrile]: under 15 nM.
